From PubChem BioAssay (NCI) come the findings set out here.

Test in all cases: growth of human tumour cells (NCI), 48 h
In experiment [1] the test system is M14 melanoma.
Experiment [2] has as its system LXFL 529 NSCLC.
Experiment [3] relates to HS 578T breast.
Experiment [4] has as its system OVCAR-5 ovarian.
Experiment [5] has as its system EKVX NSCLC.
For experiment [6], the system named is HOP-92 NSCLC.
In experiment [7] the test system is SK-MEL-2 melanoma.
The test system of experiment [8] is SNB-75 CNS.
The test system of experiment [9] is DMS 114 small cell lung.
Experiment [10] deals with RPMI-8226 leukemia.
In experiment [11] the test system is DMS 273 small cell lung.

“And” between values parts separate entries of the source, which are not always exact repeats. Equal values may be shown once.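 Tested at 5 concentrations; 48 h exposure; 96-well plates; endpoints linearly interpolated, else capped at highest concentration. GI50 is the concentration that inhibits growth by half. TGI: concentration producing complete growth inhibition.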 Where only a bound is given, the exact number is not on record here.

Regarding `COc1cc(-c2oc3c(OC)c(OC)cc(O)c3c(=O)c2OC)ccc1O`, the GI50 in experiment [1] is 3 µM and 6.26 µM; in [6], 2.74 µM and 5.85 µM; in [7] it was 2.52 µM and 6.91 µM; in [8], 1.7 µM and > 5 µM. In addition, the TGI in [1] was over 100 µM; in [2], over 100 µM; in experiment [3], 29.7 µM; in experiment [4], over 50 µM; in experiment [5] it was over 50 µM; in experiment [6] it was 9.13 µM and 30.1 µM. The TGI was > 100 µM and 32.7 µM in [7]; 8.54 µM and > 5 µM in [8]; over 100 µM in experiment [9].

On to `NC(=O)c1[nH]nc(C2OC(CO)C(O)C2O)c1O` (stereo unspecified), for which the TGI in experiment [1] turned out to be 882 µM; in experiment [10], 1830 µM; in [11], 210 µM; in experiment [3] it was 1620 µM; in experiment [4], 2830 µM; in [5], 1960 µM. The TGI in experiment [6] was determined as 279 µM; in experiment [7] it was 843 µM; in experiment [8] it was 840 µM; in experiment [9] it was 858 µM.

For the compound `Cc1c(O)c(=O)ccn1C1OC(CO)C(O)C1O` (stereo unspecified), the TGI in [1], in experiment [10], in experiment [11], in experiment [2], in [4] and in [5] was over 100 µM each time. The TGI in [6], in experiment [7] and in experiment [8] was over 100 µM each time.

Turning to `NC(=O)c1csc(C2C=CC(CO)O2)n1` (stereo unspecified), the TGI in experiment [1], in experiment [10], in [11], in experiment [2], in experiment [4] and in [5] was over 100 µM each time. In addition, the TGI in experiment [6], in [7] and in experiment [9] was over 100 µM throughout.

For `Cc1ccc(S(=O)(=O)CNC(=S)CCCC(=S)NCS(=O)(=O)c2ccc(C)cc2)cc1`, the TGI in [1], in experiment [10], in experiment [11], in [2], in experiment [4] and in experiment [5] was over 100 µM throughout. For the same compound, the TGI is 50.3 µM in experiment [6] and over 100 µM in [8].

For the compound `Cc1ccc(S(=O)(=O)N2CCC3(C(/C=C/c4ccccc4)=Nc4ccccc43)C2c2ccccc2)cc1` (stereo unspecified), the TGI in experiment [1], in experiment [10], in experiment [11], in experiment [2], in experiment [4] and in experiment [5] was over 100 µM each time. The TGI in [6], in experiment [8] and in experiment [9] was over 100 µM each time.

`CC1CCCC(C(O)CC2CC(=O)N(c3ccccc3)C(=O)C2)C1=O` (stereo unspecified): the TGI in experiment [1], in experiment [10], in experiment [11], in experiment [2], in experiment [4] and in experiment [5] was over 100 µM each time. Further, the TGI in [6], in experiment [8] and in [9] was over 100 µM in each case.

Regarding `CC(=O)NNc1nc(C)c(C(/C=C/c2ccc(Cl)cc2)=N\NS(=O)(=O)c2ccc(C)cc2)s1`, the TGI in [1], in experiment [10], in experiment [11], in [2], in [4] and in experiment [5] was over 100 µM each time. The TGI in experiment [6], in [7] and in experiment [8] was over 100 µM each time.

For the compound `C/C(=N\NC(=O)CC(=O)Nc1ccc(Cl)cc1)c1cc2ccccc2oc1=O`, the TGI in experiment [1], in experiment [10], in experiment [11], in experiment [5], in experiment [8] and in experiment [9] was over 100 µM in each case.

For `FC(F)(F)c1ccc(C=NC23CC4CC(CC(C4)C2)C3)cc1`, the TGI in experiment [1], in [10], in [11], in experiment [4], in experiment [5] and in experiment [6] was over 100 µM each time. Also, the TGI in experiment [7], in experiment [8] and in [9] was over 100 µM in each case.

For the compound `CC12O[C@H](c3ccccc3)[C@H](c3ccccc3)N1C(=O)C1(C(=O)OCc3ccccc3)CC12` (stereo partly specified), the TGI in experiment [1], in [11], in [2], in experiment [4], in [6] and in [7] was over 100 µM throughout. The TGI in experiment [8] and in [9] was over 100 µM throughout.

For the compound `CS(=O)(=O)N1CCN(Cc2cc3nc(-c4cccc5[nH]ncc45)nc(N4CCOCC4)c3s2)CC1` (tested in a mixture with another compound), the GI50 in experiment [1] was 0.277 µM; in [10] it was 3.48 µM; in [3], 0.0496 µM; in experiment [4] it was 0.134 µM; in experiment [5], 0.087 µM; in experiment [6], 0.114 µM. Moreover, the GI50 in experiment [7] is 0.753 µM; in experiment [8], 0.021 µM. The TGI was over 100 µM in [10]; 0.612 µM in experiment [3]; 0.829 µM in experiment [6]; 6.67 µM in [7]; 0.164 µM in experiment [8].

In the case of `Cn1cc2c(n1)c(N/N=C/c1ccccc1)nn1nnnc21`, the TGI in [1], in experiment [10], in experiment [11], in experiment [2], in [5] and in experiment [6] was over 100 µM in each case. The TGI in experiment [8] and in [9] was over 100 µM in each case.

Turning to `COc1ncc(-c2nc3c(n2C(C)C)[C@H](c2ccc(Cl)cc2)N(c2cc(Cl)cn(C)c2=O)C3=O)c(OC)n1`, the GI50 is 36.8 µM in experiment [1]; 24.5 µM in [10]; 32.6 µM in experiment [3]; over 100 µM in [4]; 36.6 µM in experiment [5]; 3.28 µM in experiment [6]. The GI50 in [7] is 46.3 µM; in experiment [8] it was 30 µM. In addition, the TGI in [1] is over 100 µM; in [10], 87.5 µM; in experiment [3], over 100 µM; in experiment [4], over 100 µM; in experiment [5], over 100 µM; in experiment [6], 52.6 µM. Also, the TGI in experiment [7] and in experiment [8] was over 100 µM throughout.
